According to the kinase profiling compilation of Christmann-Franck et al. (2016):

Key:
Assay in all cases: radiometric filter-binding kinase assay, Kinase HotSpot
Settings in all cases: compound 0.5 µM; ATP 10 µM
[1] = target: ROCK1 (human) (UniProt Q13464)
[2] = target: AXL (human) (UniProt P30530)
[3] = target: DYRK3 (human) (UniProt O43781)
[4] = target: NEK11 (human) (UniProt Q8NG66)
[5] = target: INSR (human) (UniProt P06213)
[6] = target: SRPK2 (human) (UniProt P78362)
[7] = target: MAP3K5 (human) (UniProt Q99683)
[8] = target: PBK (human) (UniProt Q96KB5)
[9] = target: CSNK2A1 (human) (UniProt P68400)
[10] = target: MAP4K2 (human) (UniProt Q12851)
[11] = target: TAOK3 (human) (UniProt Q9H2K8)
[12] = target: PTK2B (human) (UniProt Q14289)
[13] = target: CAMK1D (human) (UniProt Q8IU85)
[14] = target: AKT3 (human) (UniProt Q9Y243)
[15] = target: CSK (human) (UniProt P41240)
[16] = target: MAPK11 (human) (UniProt Q15759)
[17] = target: STK10 (human) (UniProt O94804)
[18] = target: CAMK2A (human) (UniProt Q9UQM7)
[19] = target: TYK2 JH1 catalytic (human) (UniProt P29597)
[20] = target: BTK (human) (UniProt Q06187)
[21] = target: PRKD3 (human) (UniProt O94806)
[22] = target: MAPK8 (human) (UniProt P45983)
[23] = target: PDGFRB (human) (UniProt P09619)
[24] = target: SLK (human) (UniProt Q9H2G2)
[25] = target: MAP3K8 (human) (UniProt P41279)
[26] = target: CDK2 CCNA2 (human) (UniProt P24941+P20248)
[27] = target: AURKC (human) (UniProt Q9UQB9)
[28] = target: EPHA4 (human) (UniProt P54764)
[29] = target: LCK (human) (UniProt P06239)
[30] = target: DAPK1 (human) (UniProt P53355)
[31] = target: PAK6 (human) (UniProt Q9NQU5)
[32] = target: MAP3K3 (human) (UniProt Q99759)
[33] = target: MAP3K14 (human) (UniProt Q99558)
[34] = target: FER (human) (UniProt P16591)
[35] = target: CAMK2D (human) (UniProt Q13557)
[36] = target: ACVR1B (human) (UniProt P36896)
[37] = target: CDK6 CCND1 (human) (UniProt Q00534+P24385)
[38] = target: STK33 (human) (UniProt Q9BYT3)
[39] = target: PRKD1 (human) (UniProt Q15139)
[40] = target: PRKACG (human) (UniProt P22612)
[41] = target: STK38 (human) (UniProt Q15208)
[42] = target: RPS6KA3 KD1 KD2 (human) (UniProt P51812)

Chain of ACVR1B (human) (P36896 whole entry, looked up): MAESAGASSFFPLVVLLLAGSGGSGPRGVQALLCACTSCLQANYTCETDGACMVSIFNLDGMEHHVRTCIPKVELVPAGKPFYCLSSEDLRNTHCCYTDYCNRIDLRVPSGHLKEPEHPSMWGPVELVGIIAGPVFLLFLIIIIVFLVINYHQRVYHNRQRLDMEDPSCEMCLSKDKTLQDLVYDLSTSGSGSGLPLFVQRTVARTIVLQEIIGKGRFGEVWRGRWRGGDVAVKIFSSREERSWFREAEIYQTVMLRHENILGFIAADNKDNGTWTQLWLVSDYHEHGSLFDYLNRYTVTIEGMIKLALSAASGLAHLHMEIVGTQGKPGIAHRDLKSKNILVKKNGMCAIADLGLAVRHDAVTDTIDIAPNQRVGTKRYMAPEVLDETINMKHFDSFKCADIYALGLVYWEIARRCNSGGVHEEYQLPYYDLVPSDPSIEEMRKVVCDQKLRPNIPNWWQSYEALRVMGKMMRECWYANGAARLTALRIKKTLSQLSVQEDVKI
Chain of DAPK1 (human) (P53355 whole entry, looked up): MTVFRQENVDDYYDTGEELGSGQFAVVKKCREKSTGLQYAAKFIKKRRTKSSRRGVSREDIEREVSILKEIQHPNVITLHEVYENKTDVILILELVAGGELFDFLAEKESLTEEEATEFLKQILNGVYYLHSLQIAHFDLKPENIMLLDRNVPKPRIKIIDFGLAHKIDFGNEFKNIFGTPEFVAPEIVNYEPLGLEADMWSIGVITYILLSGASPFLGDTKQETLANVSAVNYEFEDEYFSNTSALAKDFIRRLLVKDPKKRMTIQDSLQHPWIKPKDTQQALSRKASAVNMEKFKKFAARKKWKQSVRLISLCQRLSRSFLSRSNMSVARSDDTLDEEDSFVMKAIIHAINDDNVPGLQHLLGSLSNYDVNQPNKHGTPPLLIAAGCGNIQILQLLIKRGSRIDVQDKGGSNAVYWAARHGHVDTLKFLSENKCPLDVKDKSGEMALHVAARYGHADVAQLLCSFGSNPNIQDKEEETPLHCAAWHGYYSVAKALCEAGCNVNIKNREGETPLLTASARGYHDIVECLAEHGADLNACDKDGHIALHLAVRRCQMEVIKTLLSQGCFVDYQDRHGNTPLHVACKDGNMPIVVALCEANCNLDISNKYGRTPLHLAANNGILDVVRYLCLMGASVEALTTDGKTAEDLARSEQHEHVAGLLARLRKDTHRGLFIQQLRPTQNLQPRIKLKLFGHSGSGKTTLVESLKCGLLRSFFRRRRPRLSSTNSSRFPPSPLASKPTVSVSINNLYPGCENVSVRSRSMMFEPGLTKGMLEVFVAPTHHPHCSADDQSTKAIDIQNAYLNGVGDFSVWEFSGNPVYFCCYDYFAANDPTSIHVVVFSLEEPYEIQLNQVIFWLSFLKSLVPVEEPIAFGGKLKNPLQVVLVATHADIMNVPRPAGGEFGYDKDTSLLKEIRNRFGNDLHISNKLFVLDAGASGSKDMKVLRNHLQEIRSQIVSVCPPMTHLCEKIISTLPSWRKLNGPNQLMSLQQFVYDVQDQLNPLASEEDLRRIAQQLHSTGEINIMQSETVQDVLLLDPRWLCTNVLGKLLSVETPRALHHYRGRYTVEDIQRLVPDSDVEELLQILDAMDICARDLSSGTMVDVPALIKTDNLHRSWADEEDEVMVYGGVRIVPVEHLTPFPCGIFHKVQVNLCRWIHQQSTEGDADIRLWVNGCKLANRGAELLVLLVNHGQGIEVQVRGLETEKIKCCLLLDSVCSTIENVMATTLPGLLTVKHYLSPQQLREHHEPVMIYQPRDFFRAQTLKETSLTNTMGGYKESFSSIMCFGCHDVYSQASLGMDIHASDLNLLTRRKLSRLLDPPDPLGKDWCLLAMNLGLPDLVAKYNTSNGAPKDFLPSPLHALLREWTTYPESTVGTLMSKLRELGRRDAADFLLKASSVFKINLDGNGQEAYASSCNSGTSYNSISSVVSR
Chain of PRKD3 (human) (O94806 whole entry, looked up): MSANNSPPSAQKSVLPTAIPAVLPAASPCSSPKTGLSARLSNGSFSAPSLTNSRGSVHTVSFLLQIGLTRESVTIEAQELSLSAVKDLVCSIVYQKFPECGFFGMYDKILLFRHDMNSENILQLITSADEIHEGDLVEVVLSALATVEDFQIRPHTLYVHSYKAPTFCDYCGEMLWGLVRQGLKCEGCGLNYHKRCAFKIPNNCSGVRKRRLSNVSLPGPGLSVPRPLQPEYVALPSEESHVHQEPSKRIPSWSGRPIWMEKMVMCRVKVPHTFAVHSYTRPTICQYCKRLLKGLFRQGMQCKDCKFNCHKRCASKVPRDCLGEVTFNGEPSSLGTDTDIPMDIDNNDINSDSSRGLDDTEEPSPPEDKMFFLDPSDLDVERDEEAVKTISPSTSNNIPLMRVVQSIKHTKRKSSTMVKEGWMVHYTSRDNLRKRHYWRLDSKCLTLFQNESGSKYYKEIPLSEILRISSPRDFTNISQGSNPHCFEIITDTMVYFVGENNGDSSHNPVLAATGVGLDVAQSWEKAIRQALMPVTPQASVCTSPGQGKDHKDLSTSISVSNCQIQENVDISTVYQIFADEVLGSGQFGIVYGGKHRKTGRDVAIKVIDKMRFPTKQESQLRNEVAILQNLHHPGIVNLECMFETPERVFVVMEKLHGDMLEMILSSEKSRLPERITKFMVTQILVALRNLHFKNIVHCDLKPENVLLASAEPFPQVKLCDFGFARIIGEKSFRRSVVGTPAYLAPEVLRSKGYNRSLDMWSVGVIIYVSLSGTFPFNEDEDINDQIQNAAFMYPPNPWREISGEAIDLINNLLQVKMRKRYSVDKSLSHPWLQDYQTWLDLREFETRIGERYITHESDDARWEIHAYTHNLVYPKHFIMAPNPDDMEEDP
Chain of MAP3K14 (human) (Q99558 whole entry, looked up): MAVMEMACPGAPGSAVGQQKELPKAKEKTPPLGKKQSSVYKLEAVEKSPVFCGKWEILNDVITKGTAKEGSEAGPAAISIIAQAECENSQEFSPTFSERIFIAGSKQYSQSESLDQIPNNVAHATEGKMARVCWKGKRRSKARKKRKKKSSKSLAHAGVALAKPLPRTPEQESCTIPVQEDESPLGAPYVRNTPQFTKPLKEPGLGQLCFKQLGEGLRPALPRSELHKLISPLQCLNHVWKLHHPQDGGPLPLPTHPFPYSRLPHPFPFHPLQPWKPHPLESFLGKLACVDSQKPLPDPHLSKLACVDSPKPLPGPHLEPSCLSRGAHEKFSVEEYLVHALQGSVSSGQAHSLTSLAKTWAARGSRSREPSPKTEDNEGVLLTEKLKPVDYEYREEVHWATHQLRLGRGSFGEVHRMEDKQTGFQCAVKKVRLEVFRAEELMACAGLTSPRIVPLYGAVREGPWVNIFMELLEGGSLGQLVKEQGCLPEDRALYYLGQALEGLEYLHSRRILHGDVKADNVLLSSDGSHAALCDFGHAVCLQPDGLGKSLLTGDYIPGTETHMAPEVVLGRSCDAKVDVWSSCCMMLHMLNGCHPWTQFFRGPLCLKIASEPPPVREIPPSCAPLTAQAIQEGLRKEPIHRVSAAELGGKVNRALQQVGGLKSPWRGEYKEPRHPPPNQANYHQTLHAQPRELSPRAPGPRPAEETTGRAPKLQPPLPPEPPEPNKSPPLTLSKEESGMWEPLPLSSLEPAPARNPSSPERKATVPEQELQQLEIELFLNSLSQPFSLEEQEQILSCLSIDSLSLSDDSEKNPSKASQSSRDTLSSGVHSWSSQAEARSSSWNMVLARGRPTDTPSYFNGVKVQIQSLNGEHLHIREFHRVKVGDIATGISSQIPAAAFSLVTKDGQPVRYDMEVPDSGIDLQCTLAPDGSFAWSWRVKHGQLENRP
Chain of CSK (human) (P41240 whole entry, looked up): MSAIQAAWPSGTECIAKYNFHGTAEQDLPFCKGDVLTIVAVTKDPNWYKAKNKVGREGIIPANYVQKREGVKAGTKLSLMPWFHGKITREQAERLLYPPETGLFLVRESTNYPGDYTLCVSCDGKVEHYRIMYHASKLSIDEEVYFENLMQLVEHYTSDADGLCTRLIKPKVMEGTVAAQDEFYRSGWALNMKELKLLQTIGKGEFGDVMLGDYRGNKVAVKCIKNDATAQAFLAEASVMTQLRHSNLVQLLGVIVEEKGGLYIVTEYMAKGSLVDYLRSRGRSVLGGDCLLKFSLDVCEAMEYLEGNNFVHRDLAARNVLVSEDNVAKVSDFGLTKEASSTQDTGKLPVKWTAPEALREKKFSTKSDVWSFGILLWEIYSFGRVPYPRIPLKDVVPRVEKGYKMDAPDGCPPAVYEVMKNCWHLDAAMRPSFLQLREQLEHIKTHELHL
Chain of PRKACG (human) (P22612 whole entry, looked up): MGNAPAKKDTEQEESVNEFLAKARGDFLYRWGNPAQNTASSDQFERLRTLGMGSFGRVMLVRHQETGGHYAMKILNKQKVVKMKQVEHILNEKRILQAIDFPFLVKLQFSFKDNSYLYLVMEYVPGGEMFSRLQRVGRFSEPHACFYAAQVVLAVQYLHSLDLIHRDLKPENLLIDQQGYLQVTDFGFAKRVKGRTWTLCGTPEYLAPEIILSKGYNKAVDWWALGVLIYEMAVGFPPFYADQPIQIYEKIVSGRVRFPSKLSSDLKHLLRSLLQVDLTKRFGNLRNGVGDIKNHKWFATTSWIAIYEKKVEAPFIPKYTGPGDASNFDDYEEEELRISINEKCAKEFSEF
Chain of AKT3 (human) (Q9Y243 whole entry, looked up): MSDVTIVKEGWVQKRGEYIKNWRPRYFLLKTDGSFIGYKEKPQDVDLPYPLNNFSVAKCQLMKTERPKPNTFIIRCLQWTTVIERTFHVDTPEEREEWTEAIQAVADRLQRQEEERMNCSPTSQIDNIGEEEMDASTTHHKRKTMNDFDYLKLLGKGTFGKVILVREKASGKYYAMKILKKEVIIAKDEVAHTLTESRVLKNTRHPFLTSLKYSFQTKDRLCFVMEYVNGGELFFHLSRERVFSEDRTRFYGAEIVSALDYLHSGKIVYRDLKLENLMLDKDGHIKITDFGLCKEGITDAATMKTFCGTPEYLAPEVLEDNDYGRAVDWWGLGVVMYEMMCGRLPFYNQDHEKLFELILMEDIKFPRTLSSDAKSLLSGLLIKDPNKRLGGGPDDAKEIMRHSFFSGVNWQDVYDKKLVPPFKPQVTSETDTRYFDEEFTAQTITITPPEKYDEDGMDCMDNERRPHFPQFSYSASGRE

Structure (SMILES): Nc1ncnc2c1c(-c1ccc(Oc3ccccc3)cc1)cn2C1CCCC1
- residual activity [1]: 106%
- residual activity [2]: 113%
- residual activity [3]: 94.9%
- residual activity [4]: 87.1%
- residual activity [5]: 103%
- residual activity [6]: 93.4%
- residual activity [7]: 99.1%
- residual activity [8]: 114%
- residual activity [9]: 102%
- residual activity [10]: 89.4%
- residual activity [11]: 92.9%
- residual activity [12]: 96.7%
- residual activity [13]: 50.3%
- residual activity [14]: 98.2%
- residual activity [15]: 3.4%
- residual activity [16]: 106%
- residual activity [17]: 73.1%
- residual activity [18]: 113%
- residual activity [19]: 98.5%
- residual activity [20]: 4.56%
- residual activity [21]: 89.4%
- residual activity [22]: 117%
- residual activity [23]: 73.4%
- residual activity [24]: 96.5%
- residual activity [25]: 83.3%
- residual activity [26]: 104%
- residual activity [27]: 95%
- residual activity [28]: 87.5%
- residual activity [29]: 1.12%
- residual activity [30]: 79.1%
- residual activity [31]: 88.2%
- residual activity [32]: 71.2%
- residual activity [33]: 113%
- residual activity [34]: 88.1%
- residual activity [35]: 99.5%
- residual activity [36]: 93.9%
- residual activity [37]: 98.2%
- residual activity [38]: 92.3%
- residual activity [39]: 96.2%
- residual activity [40]: 106%
- residual activity [41]: 99.3%
- residual activity [42]: 96.9%

Structure (SMILES): CCN(CC)CCNC(=O)c1c(C)[nH]c(/C=C2\C(=O)Nc3ccc(Cl)cc32)c1C
- residual activity [1]: 89.7%
- residual activity [2]: 25.2%
- residual activity [3]: 81.8%
- residual activity [4]: 83.4%
- residual activity [5]: 30.1%
- residual activity [6]: 93.7%
- residual activity [7]: 98.1%
- residual activity [8]: 104%
- residual activity [9]: 91.4%
- residual activity [10]: 8.07%
- residual activity [11]: 45.5%
- residual activity [12]: 30.5%
- residual activity [13]: 60.2%
- residual activity [14]: 84.2%
- residual activity [15]: 86.3%
- residual activity [16]: 100%
- residual activity [17]: 7.11%
- residual activity [18]: 3.6%
- residual activity [19]: 30.8%
- residual activity [20]: 58.3%
- residual activity [21]: 8.04%
- residual activity [22]: 97.2%
- residual activity [23]: 9.28%
- residual activity [24]: 38%
- residual activity [25]: 113%
- residual activity [26]: 92.8%
- residual activity [27]: 74.7%
- residual activity [28]: 88%
- residual activity [29]: 11.8%
- residual activity [30]: 47.7%
- residual activity [31]: 101%
- residual activity [32]: 30.6%
- residual activity [33]: 118%
- residual activity [34]: 17.7%
- residual activity [35]: 7.25%
- residual activity [36]: 103%
- residual activity [37]: 27.8%
- residual activity [38]: 20.6%
- residual activity [39]: 11.3%
- residual activity [40]: 101%
- residual activity [41]: 95.8%
- residual activity [42]: 15.1%

Structure (SMILES): O=C1NC(=O)C(c2cn(CCCn3ccnc3)c3ccccc23)=C1Nc1ccccc1
- residual activity [1]: 99.2%
- residual activity [2]: 98.8%
- residual activity [3]: 103%
- residual activity [4]: 75.6%
- residual activity [5]: 84.4%
- residual activity [6]: 96.2%
- residual activity [7]: 105%
- residual activity [8]: 104%
- residual activity [9]: 100%
- residual activity [10]: 85.7%
- residual activity [11]: 76.5%
- residual activity [12]: 93.3%
- residual activity [13]: 97.4%
- residual activity [14]: 71%
- residual activity [15]: 110%
- residual activity [16]: 111%
- residual activity [17]: 11.5%
- residual activity [18]: 95.5%
- residual activity [19]: 83.4%
- residual activity [20]: 105%
- residual activity [21]: 80%
- residual activity [22]: 99.6%
- residual activity [23]: 76.5%
- residual activity [24]: 39.1%
- residual activity [25]: 100%
- residual activity [26]: 83.4%
- residual activity [27]: 89.8%
- residual activity [28]: 111%
- residual activity [29]: 99.4%
- residual activity [30]: 99.2%
- residual activity [31]: 105%
- residual activity [32]: 95.8%
- residual activity [33]: 96.1%
- residual activity [34]: 56.1%
- residual activity [35]: 85.4%
- residual activity [36]: 96.2%
- residual activity [37]: 83.1%
- residual activity [38]: 82.9%
- residual activity [39]: 94.4%
- residual activity [40]: 117%
- residual activity [41]: 99.1%
- residual activity [42]: 3.85%
